Literature values, collected in patent US11938211B2, “Process for coloring keratinous material comprising the use of an organosilicon compound, an effect pigment, a further coloring compound and a film-forming polymer I” (Henkel AG & Co. KGaA, priority 2019, dated 2024).

Settings: 25° C.

Row | solubility in water (in words) | Compound | solubility in water
1 |  | CCN(Cc1cccc(S(=O)(=O)[O-])c1)c1ccc(C(=C2C=CC(=[N+](CC)Cc3cccc(S(=O)(=O)[O-])c3)C=C2)c2ccccc2S(=O)(=O)[O-])cc1.[Na+].[Na+] [Acid Blue 9] | more than 20 % by weight
2 |  | O=S(=O)([O-])c1ccc(N=Nc2c(O)ccc3ccccc23)cc1.[Na+] [Acid Orange 7, sodium salt of 4-[(2-hydroxy-1-naphthyl)azo]benzene sulphonate] | more than 7 g/L
3 |  | Nc1cc(S(=O)(=O)[O-])cc2cc(S(=O)(=O)[O-])c(N=Nc3ccccc3)c(O)c12.[Na+].[Na+] [Acid Red 33, disodium salt of 5-amino-4-hydroxy-3-(phenylazo)-naphthalene-2,7-disulphonate] | 2500 µg/mL
4 |  | O=C([O-])c1c(Cl)c(Cl)c(Cl)c(Cl)c1-c1c2c(Br)cc(=O)c(Br)c-2oc2c(Br)c(O)cc(Br)c12.O=C([O-])c1c(Cl)c(Cl)c(Cl)c(Cl)c1-c1c2c(Br)cc(=O)c(Br)c-2oc2c(Br)c(O)cc(Br)c12.[Na+].[Na+] [Acid Red 92, disodium salt of 3,4,5,6-tetrachloro-2-(1,4,5,8-tetrabromo-6-hydroxy-3-oxoxanthen-9-yl)benzoic acid] | greater than 10 g/L
5 | highly soluble | O=C([O-])C1=NN(c2ccc(S(=O)(=O)[O-])cc2)C(=O)C1N=Nc1ccc(S(=O)(=O)[O-])cc1.[Na+].[Na+].[Na+] (centres unmarked) [Acid Yellow 23, trisodium salt of 4,5-dihydro-5-oxo-1-(4-sulfophenyl)-4-((4-sulfophenyl)azo)-1H-pyrazole-3-carboxylic acid] | 
